pIC50: −log10 of the molar value. Where only a bound is given, the exact number is not on record here.

The target in one test is Histone deacetylase. The test can be described thus: Inhibitory concentration against histone deacetylase (HDAC); Value ranges from 5-8 uM. In kind it is protein assay.
Conditions: not given
As for `CCCC(CCC)C(=O)Nc1ccc(C(=O)NO)cc1`, the IC50 is less than 8 µM.
On the same count and under the same terms, as for `CCCC(CCC)C(=O)NCc1ccc(C(=O)NO)cc1`, the figure is less than 8 µM; as for `CCCC(CCC)C(=O)NCc1ccc(C(=O)Nc2ccccc2N)cc1`, less than 8 µM.

Another test concerns DU-145. As to the kind of experiment: Effect of HTPB on DU-145 Cell viability; high degree of sensitivity, Range 0.5-1. In kind it is functional, cell-based. As to conditions: Homo sapiens.
Compound `O=C(CCCc1ccccc1)Nc1ccc(C(=O)NO)cc1` had a pIC50 of 6.00.

The next test concerns the target Histone deacetylase. As to the kind of experiment: Inhibitory concentration against histone deacetylase (HDAC); Value ranges from 10-20 uM. The class given is protein assay.
Conditions: not given
`CCCC(CCC)C(=O)Nc1ccc(/C=C/C(=O)NO)cc1`: the IC50 is less than 20 µM.
Same read-out and setting: with `CCCC(CCC)C(=O)Nc1ccc(C(=O)Nc2ccccc2N)cc1` the figure was less than 20 µM; with `CCCC(CCC)C(=O)Nc1ccc(/C=C/C(=O)Nc2ccccc2N)cc1`, less than 20 µM.

A further test addresses Histone deacetylase. The test can be described thus: Inhibitory concentration against histone deacetylase (HDAC); Value ranges from 5-80 uM. In kind it is protein assay.
Conditions: not given
Take `CCCC(CCC)C(=O)Nc1ccc(CC(=O)NO)cc1`: the concentration for half-maximal inhibition (IC50) is less than 80 µM.
`CCCC(CCC)C(=O)Nc1ccc(CCC(=O)Nc2ccccc2N)cc1` showed an IC50 of less than 80 µM.

A further test has as its target Histone deacetylase. As to the kind of experiment: Inhibition of histone deacetylase (HDAC) activity in DU-145 nuclear extracts. The class given is protein assay, Homo sapiens.
Conditions: not given
For the compound `Nc1ccccc1NC(=O)c1ccc(CNC(=O)Cc2ccccc2)cc1`, the IC50 came to 5.2 µM.
Compound `O=C(CCc1ccc(NC(=O)CCCc2ccccc2)cc1)NO` had an IC50 of 0.53 µM. Compared with the last compound, the IC50 is about 9.8-fold lower.
Compound `CCCC(CCC)C(=O)Nc1ccc(CC(=O)Nc2ccccc2N)cc1` came in with an IC50 of 80 µM.
On to `CCCC(=O)Nc1ccc(CCC(=O)NO)cc1`, for which the IC50 was found to be 1.6 µM.
Same read-out and setting: as for `CCCC(=O)Nc1ccc(C(=O)NO)cc1`, the figure is 1.5 µM.
`CCCC(CCC)C(=O)Nc1ccc(CCC(=O)NO)cc1` came in with a half-inhibitory concentration (IC50) of 5 µM. Compared with the last compound, the IC50 is about 3.3-fold higher.
Still for that read-out and setting: as for `CCCC(=O)NCc1ccc(C(=O)NO)cc1`, the figure is 3.6 µM; as for `O=C(CCCc1ccccc1)Nc1ccc(C(=O)NO)cc1`, 0.044 µM; as for `O=C(Cc1ccccc1)NCc1ccc(C(=O)NO)cc1`, 2.5 µM.
Same read-out and setting: as for `O=C(CCCc1ccccc1)NCc1ccc(C(=O)NO)cc1`, the figure is 1.2 µM.
`O=C(CCc1ccc(NC(=O)Cc2ccccc2)cc1)NO` showed an IC50 of 0.67 µM.
The same measure, in the same setting: with `O=C(Cc1ccccc1)Nc1ccc(C(=O)NO)cc1` the figure was 0.11 µM.
The same measure, in the same setting: with `Nc1ccccc1NC(=O)c1ccc(CNC(=O)CCCc2ccccc2)cc1` the figure was 4.3 µM; with `CCCC(=O)NCc1ccc(C(=O)Nc2ccccc2N)cc1`, 6 µM.

For the origin of these results see ChEMBL document CHEMBL1138834, “Zn2+-chelating motif-tethered short-chain fatty acids as a novel class of histone deacetylase inhibitors” (J Med Chem, 2004).
